ChEMBL document CHEMBL4376811, “Naturally Occurring Lumazines” (J Nat Prod, 2019)
pIC50: −log10 of the molar value. Values after ≈ are worked out from the molar mass of the structure shown.

Tests used:
PC-12 = experiment: Anti-anoxic activity in rat PC12 cells reduction in assessed as sodium hydrosulfite-induced cell injury; type: functional, cell-based
Sortase A = target: T1, Sortase A (Staphylococcus aureus, UniProt Q9S446); experiment: Inhibition of recombinant Staphylococcus aureus ATCC 6538p sortase A incubated for 1 hr in presence of (Dabcyl-QALPETGEE-Edans substrate by fluorescence spectrophotometry
T1 sequence (Q9S446 whole entry): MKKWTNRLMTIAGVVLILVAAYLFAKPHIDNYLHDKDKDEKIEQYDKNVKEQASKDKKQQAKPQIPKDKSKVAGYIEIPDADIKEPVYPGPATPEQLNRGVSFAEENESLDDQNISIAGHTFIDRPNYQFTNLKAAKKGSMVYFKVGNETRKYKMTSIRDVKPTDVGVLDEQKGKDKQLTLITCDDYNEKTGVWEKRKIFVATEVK

[1] = Inhibition of Magnaporthe grisea Guy 11 isocitrate lyase; parameters: species or system Pyricularia grisea
[2] = target: Sodium/potassium-transporting ATPase; experiment: Inhibition of Na+/K+-ATPase in human placental syncytiotrophoblast-microvillous membranes/basal membranes using 3-O-methylfluorescein phosphate by fluorometric method
Cathepsin B = Cathepsin B (Homo sapiens, UniProt P07858); experiment: Inhibition of cathepsin B (unknown origin) assessed as reduction in enzyme activity

Compound: COCCOC(=O)C1=C(C)NC(C)=C(C(=O)OC(C)C)C1c1cccc([N+](=O)[O-])c1 (stereo not given) [NIMODIPINE]
- EC50 (PC-12): 1.29 µg/mL (≈ 3.08 µM)

Compound: CSc1c(C(=O)CO)sc2nc3[nH]c(=O)[nH]c(=O)c3nc12
- EC50 (PC-12): 19.5 µg/mL (≈ 60.2 µM)

Compound: COC(=O)c1ccccc1NC(=O)[C@H](CO)NC(=O)c1cnc2c(n1)c(=O)[nH]c(=O)n2C
- pIC50 (Sortase A): < 4.00
- pIC50 [1]: < 4.00
- pIC50 [2]: < 4.00

Compound: COC(=O)c1ccccc1NC(=O)[C@@H](NC(=O)c1cnc2c(n1)c(=O)[nH]c(=O)n2C)[C@@H](C)O
- pIC50 (Sortase A): < 4.00
- pIC50 [1]: < 4.00
- pIC50 [2]: < 4.00

Compound: CSc1c(C(=O)O)sc2nc3[nH]c(=O)[nH]c(=O)c3nc12
- EC50 (PC-12): 27 µg/mL (≈ 87 µM)

Compound: CN(CCc1cnc[nH]1)c1cnc2[nH]c(=O)[nH]c(=O)c2n1
- pIC50 (Cathepsin B): 5.31
